Experimental data: article PMC3608514 (Advances in enzyme regulation, 2009)

Key:
DGK-θ [1] = target: T1, DGK-θ (Homo sapiens, UniProt P52824); assay: DGK activity assay; type: biochemical
T1 sequence (P52824 1-942): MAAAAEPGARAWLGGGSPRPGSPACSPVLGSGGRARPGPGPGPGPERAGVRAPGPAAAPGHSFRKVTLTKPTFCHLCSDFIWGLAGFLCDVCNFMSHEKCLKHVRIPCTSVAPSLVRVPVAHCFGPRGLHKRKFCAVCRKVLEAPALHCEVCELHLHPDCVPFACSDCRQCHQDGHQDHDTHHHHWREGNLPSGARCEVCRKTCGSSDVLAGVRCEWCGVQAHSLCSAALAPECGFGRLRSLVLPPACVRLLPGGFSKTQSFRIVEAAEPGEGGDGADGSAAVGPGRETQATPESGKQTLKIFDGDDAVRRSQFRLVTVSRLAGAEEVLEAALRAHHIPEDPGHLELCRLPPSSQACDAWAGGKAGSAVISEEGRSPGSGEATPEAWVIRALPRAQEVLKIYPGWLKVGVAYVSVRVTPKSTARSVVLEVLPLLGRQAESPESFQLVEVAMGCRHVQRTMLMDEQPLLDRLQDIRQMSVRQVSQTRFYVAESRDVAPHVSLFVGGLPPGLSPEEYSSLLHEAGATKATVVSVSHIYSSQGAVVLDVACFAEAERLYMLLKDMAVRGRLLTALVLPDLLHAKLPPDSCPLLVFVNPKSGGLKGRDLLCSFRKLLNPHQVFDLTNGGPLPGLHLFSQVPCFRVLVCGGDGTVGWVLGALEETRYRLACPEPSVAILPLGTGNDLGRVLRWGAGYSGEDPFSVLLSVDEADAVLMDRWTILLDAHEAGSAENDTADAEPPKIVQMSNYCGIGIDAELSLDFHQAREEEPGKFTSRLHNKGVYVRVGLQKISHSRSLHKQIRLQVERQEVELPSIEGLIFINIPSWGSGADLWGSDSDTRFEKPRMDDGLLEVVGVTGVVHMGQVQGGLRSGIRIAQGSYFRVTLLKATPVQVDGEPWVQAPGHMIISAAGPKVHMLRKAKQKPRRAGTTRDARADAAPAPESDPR

DGK-θ [2] = target: T1, DGK-θ

| SMILES | Ki (DGK-θ [1]) [µM] | DGK activity assay in OG mixed micelles with cytosol over-expressing DGKθ; dose (DGK-θ [2]) [mM] |
| --- | --- | --- |
| COc1ccc2c(c1)CC[C@@H]1[C@@H]2CC[C@]2(C)[C@@H](NCCCCCCN3C(=O)C=CC3=O)CC[C@@H]12 [U73122] | ~20 | – |
| O=P(O)(O)OP(=O)(O)O [NaPPi, sodium pyrophosphate] | – | 1 to 2 |
